For the experiment, the system named is PAO1. The experiment in a line: Salt sensitivity assay. Format: cell-based, P. aeruginosa.

Regarding Polymyxin B, the MBC (CaCl2 (2.5 mM)) was determined as 2 µM; the MBC (FeCl3 (4 μM)) worked out at 1 µM; the MBC (KCl (4.5 mM)) turned out to be 1 µM; the MBC (MgCl2 (1 mM)) was 1 µM; the MBC (NH4Cl (6 μM)) turned out to be 1 µM; the MBC (NaCl (150 mM)) worked out at 0.5 µM. Moreover, the minimal bactericidal concentration (MBC) (ZnCl2 (8 mM)) was 1 µM. Moreover, the minimum inhibitory concentration (MIC) (CaCl2 (2.5 mM)) was found to be 2 µM; the MIC (FeCl3 (4 μM)) came to 1 µM; the MIC (KCl (4.5 mM)) is 1 µM; the MIC (MgCl2 (1 mM)) is 1 µM; the MIC (NH4Cl (6 μM)) was 1 µM; the MIC (NaCl (150 mM)) amounted to 0.5 µM. Moreover, the MIC (ZnCl2 (8 mM)) was determined as 1 µM.

What is called MBC is the lowest tested concentration that kills the bacteria rather than only halting them. As usually defined, the MIC is the lowest concentration that inhibits growth of the organism.

The values above are taken from paper PMC11322164 (Scientific Reports, 2024).
